Target: CDK12 (Homo sapiens (Human), UniProt Q9NYV4)
Experiment: Radiometric protein kinase assay (33PanQinase Activity Assay), Assay Condition B (thiol-free conditions)
Format: biochemical
Settings: thiol-free conditions (1 mM TCEP, glutathione removed)
Procedure: Example 2—Assay Condition B (Thiol-Free Conditions)
The IC50 profile of compounds was determined using one protein kinase in a customized, thiol free assay. […] Prior to testing, the 1×10^−03 M stock solutions in column 2 of the master plates were subjected to a serial, semi-logarithmic dilution using 100% DMSO as a solvent. […] Column 1 and 7 were filled with 100% DMSO as controls. Subsequently, 2×10 microliter from each well of the serial diluted copy plates were aliquoted with a 96 channel pipettor into two identical sets of “compound dilution plates”. All plates were barcoded for automated identification and tracking purposes. […] All compounds were stored as powder until being solubilized in DMSO. Solubilized compounds were stored as 1×10^−02 M/100% DMSO stock solutions. Prior to the assay process, 90 microliters of H2O were added to each well of a set of compound dilution plates. To minimize potential precipitation, the H2O was added to each plate only a few minutes before the transfer of the compound solutions into the assay plates. Each plate was shaken thoroughly, resulting in compound dilution plates with a final of 10% DMSO. For each assay, 5 microliters of solution from each well of the compound dilution plates/10% DMSO were transferred into the assay plate. The final volume of the assay was 50 μl. All compounds were tested at 10 final assay concentrations in the range from 1×10^−05 M to 3×10^−10 M, in singlicate. The final DMSO concentration in the reaction cocktails was 1% in all cases. A radiometric protein kinase assay (33PanQinase® Activity Assay) was used for measuring the kinase activity of the protein kinase. All kinase assays were performed in 96-well FlashPlates™ from PerkinElmer (Boston, Mass., USA) in a 50 microliter reaction volume. The reaction cocktail was pipetted in four steps in the following order: 20 microliter of assay buffer (standard buffer)·5 microliter of ATP solution (in H2O)·5 microliter of test compound (in 10% DMSO)·20 microliter enzyme/substrate mix. […] For all experiments labeled as “Thiol-free”, all glutathione was exchanged from protein preparations so as to be removed from the assay and final buffer conditions contained no thiol-containing reagents. This was done so there would be no interference with the key cysteines in the proteins of interest.
For data analysis, the median value of the counts in column 1 (n=8) of each assay plate was defined as “low control”. This value reflects unspecific binding of radioactivity to the plate in the absence of a protein kinase but in the presence of the substrate. The median value of the counts in column 7 of each assay plate (n=8) was taken as the “high control”, i.e. full activity in the absence of any inhibitor. The difference between high and low control was taken as 100% activity. As part of the data evaluation the low control value from a particular plate was subtracted from the high control value as well as from all 80 “compound values” of the corresponding plate. The residual activity (in %) for each well of a particular plate was calculated by using the following formula: Res. Activity (%)=100×[(cpm of compound−low control)/(high control−low control)]
The residual activities for each concentration and the compound IC50 values were calculated using Quattro Workflow V3.1.1 (Quattro Research GmbH, Munich, Germany; www.quattro-research.com). […] The fitting method used was a least-squares fit. As a parameter for assay quality, the Z′-factor (Zhang et al., J. Biomol. Screen. 2: 67-73, 1999) for the low and high controls of each assay plate (n=8) was used. ProQinase's criterion for repetition of an assay plate is a Z′-factor below 0.4 (Iversen et al., J. Biomol. Screen. 3: 247-252, 2006).

Chain of CDK12 (Q9NYV4 whole entry): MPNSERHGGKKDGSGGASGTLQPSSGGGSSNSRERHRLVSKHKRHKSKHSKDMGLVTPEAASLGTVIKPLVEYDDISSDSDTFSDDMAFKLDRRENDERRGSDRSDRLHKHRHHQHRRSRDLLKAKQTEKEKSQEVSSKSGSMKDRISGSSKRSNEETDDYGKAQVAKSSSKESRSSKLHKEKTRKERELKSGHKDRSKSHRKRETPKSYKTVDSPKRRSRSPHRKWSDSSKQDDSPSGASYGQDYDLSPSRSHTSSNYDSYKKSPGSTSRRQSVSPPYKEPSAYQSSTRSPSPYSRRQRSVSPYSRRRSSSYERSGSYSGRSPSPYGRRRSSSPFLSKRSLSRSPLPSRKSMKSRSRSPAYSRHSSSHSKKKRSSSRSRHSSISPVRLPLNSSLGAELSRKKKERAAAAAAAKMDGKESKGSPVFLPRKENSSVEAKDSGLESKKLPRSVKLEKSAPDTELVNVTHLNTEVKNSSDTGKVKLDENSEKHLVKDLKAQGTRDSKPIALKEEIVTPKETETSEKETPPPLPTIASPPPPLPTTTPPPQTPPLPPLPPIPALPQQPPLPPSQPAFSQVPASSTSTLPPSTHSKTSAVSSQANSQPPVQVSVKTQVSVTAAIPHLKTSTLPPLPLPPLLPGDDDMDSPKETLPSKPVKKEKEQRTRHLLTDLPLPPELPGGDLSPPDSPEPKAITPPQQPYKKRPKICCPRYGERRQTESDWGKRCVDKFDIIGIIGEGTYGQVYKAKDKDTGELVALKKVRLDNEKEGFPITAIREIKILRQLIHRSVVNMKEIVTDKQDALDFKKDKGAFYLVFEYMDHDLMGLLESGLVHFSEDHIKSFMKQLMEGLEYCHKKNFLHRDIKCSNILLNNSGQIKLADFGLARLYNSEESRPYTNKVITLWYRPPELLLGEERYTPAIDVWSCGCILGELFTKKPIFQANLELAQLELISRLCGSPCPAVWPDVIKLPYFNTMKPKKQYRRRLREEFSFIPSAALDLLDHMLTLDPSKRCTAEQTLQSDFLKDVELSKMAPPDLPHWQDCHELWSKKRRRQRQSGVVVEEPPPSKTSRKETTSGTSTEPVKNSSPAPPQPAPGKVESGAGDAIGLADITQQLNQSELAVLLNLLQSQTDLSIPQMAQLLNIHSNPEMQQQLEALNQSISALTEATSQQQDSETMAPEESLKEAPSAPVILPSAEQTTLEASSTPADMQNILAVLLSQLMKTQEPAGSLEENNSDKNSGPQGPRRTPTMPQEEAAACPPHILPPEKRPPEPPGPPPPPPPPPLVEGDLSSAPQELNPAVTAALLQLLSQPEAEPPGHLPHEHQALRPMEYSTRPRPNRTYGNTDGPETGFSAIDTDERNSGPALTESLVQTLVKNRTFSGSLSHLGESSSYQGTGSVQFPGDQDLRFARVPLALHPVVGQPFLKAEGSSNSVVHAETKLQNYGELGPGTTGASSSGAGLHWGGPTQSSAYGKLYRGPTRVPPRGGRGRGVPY
Chain of CDK12 (O75909 whole entry partner): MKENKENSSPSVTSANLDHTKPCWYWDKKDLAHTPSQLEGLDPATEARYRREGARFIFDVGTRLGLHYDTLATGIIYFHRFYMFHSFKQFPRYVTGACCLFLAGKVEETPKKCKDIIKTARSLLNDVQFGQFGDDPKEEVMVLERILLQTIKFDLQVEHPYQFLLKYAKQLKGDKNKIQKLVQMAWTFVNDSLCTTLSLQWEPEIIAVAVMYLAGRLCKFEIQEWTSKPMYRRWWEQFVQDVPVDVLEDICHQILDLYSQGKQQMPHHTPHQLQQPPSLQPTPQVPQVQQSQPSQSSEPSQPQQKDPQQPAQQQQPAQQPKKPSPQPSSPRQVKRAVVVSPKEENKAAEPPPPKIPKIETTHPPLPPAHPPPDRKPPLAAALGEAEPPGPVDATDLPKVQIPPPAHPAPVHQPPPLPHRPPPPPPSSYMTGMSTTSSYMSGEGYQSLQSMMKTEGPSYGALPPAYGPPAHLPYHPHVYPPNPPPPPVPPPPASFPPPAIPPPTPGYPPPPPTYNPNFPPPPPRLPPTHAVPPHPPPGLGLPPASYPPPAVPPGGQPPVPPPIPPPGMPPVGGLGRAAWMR

IC50 [µM]	Structure (SMILES)
0.1 to 1	C=CC(=O)N1CCOc2cc(C(=O)N3CC[C@@H](Nc4ncc(Cl)c(OC)n4)C3)ccc21 [Example 63, (R)-1-(7-(3-((5-chloro-4-methoxypyrimidin-2-yl)amino)pyrrolidine-1-carbonyl)-2H-benzo[b][1,4]oxazin-4(3H)-yl)prop-2-en-1-one]
0.1 to 1	C=CC(=O)Nc1ccc(C(=O)N2CC[C@@H](Nc3ncc(Cl)c(OC)n3)C2)cc1-c1cnn(C)c1 [Example 4, (R)-N-(4-(3-((5-chloro-4-methoxypyrimidin-2-yl)amino)pyrrolidine-1-carbonyl)-2-(1-methyl-1H-pyrazol-4-yl)phenyl)acrylamide]
0.1 to 1	C=CC(=O)N1CCOc2cc(C(=O)N3CC[C@@H](Nc4ncc(Cl)c(OC)n4)C3)ccc21 [Example 2, (R)-1-(7-(3-((5-chloro-4-methoxypyrimidin-2-yl)amino)pyrrolidine-1-carbonyl)-2H-benzo[b][1,4]oxazin-4(3H)-yl)prop-2-en-1-one]
< 0.1	C=CC(=O)Nc1ccc(C(=O)N2CC[C@@H](Nc3ncc(Cl)c(OC)n3)C2)cc1N1CCN(C)CC1 [Example 78, (R)—N-(4-(3-((5-chloro-4-methoxypyrimidin-2-yl)amino)pyrrolidine-1-carbonyl)-2-(4-methylpiperazin-1-yl)phenyl)acrylamide]
< 0.1	C=CC(=O)Nc1ccc(C(=O)N2CC[C@@H](Nc3ncc(Cl)c(OC)n3)C2)cc1N1CCCCC1 [Example 74, (R)—N-(4-(3-((5-chloro-4-methoxypyrimidin-2-yl)amino)pyrrolidine-1-carbonyl)-2-(piperidin-1-yl)phenyl)acrylamide]
< 0.1	C=CC(=O)Nc1ccc(C(=O)N2CC[C@@H](Nc3ncc(Cl)c(OC)n3)C2)cc1N1CCN(C)CC1 [Example 9, (R)-N-(4-(3-((5-chloro-4-methoxypyrimidin-2-yl)amino)pyrrolidine-1-carbonyl)-2-(4-methylpiperazin-1-yl)phenyl)acrylamide]
< 0.1	C=CC(=O)Nc1ccc(C(=O)N2CC[C@@H](Nc3ncc(Cl)c(OC)n3)C2)cc1Cl [Example 5, (R)-N-(2-chloro-4-(3-((5-chloro-4-methoxypyrimidin-2-yl)amino)pyrrolidine-1-carbonyl)phenyl)acrylamide]
< 0.1	C=CC(=O)Nc1ccc(C(=O)N2CC[C@@H](Nc3ncc(Cl)c(OC)n3)C2)cc1N1CCOCC1 [Example 68, (R)—N-(4-(3-((5-chloro-4-methoxypyrimidin-2-yl)amino)pyrrolidine-1-carbonyl)-2-morpholinophenyl)acrylamide]
< 0.1	C=CC(=O)Nc1ccc(C(=O)N2CC[C@@H](Nc3ncc(Cl)c(OC)n3)C2)cc1N1CCCCC1 [Example 11, (R)—N-(4-(3-((5-chloro-4-methoxypyrimidin-2-yl)amino)pyrrolidine-1-carbonyl)-2-(piperidin-1-yl)phenyl)acrylamide]

Further lines, the compound ahead of its results:

Structure (SMILES)	IC50 [µM]
C=CC(=O)Nc1ncc(C(=O)N2CC[C@@H](Nc3ncc(Cl)c(OC)n3)C2)s1 [Example 8, (R)—N-(5-(3-((5-chloro-4-methoxypyrimidin-2-yl)amino)pyrrolidine-1-carbonyl)thiazol-2-yl)acrylamide]	0.1 to 1
C=CC(=O)Nc1ccc(C(=O)N2CC[C@@H](Nc3cnc(C)cn3)C2)cc1 [Example 61, (R)—N-(4-(3-((5-methylpyrazin-2-yl)amino)pyrrolidine-1-carbonyl)phenyl)acrylamide]	1 to 10
C=CC(=O)Nc1ccc(C(=O)N2CC[C@@H](Nc3ccc(C)cn3)C2)cc1 [Example 75, (R)—N-(4-(3-((5-methylpyridin-2-yl)amino)pyrrolidine-1-carbonyl)phenyl)acrylamide]	1 to 10
C=CC(=O)Nc1ccc(C(=O)N2CC[C@@H](Nc3nccc(-c4cn[nH]c4)n3)C2)cc1 [Example 44, (R)—N-(4-(3-((4-(1H-pyrazol-4-yl)pyrimidin-2-yl)amino)pyrrolidine-1-carbonyl)phenyl)acrylamide]	0.1 to 1
C=CC(=O)Nc1ccc(C(=O)N2CC[C@@H](Nc3ccc(Cl)cn3)C2)cc1 [Example 64, (R)—N-(4-(3-((5-chloropyridin-2-yl)amino)pyrrolidine-1-carbonyl)phenyl)acrylamide]	0.1 to 1
C=CC(=O)Nc1ccc(C(=O)N2CC[C@@H](Nc3ncc(Cl)c(C)n3)C2)cc1C [Example 80, (R)—N-(4-(3-((5-chloro-4-methylpyrimidin-2-yl)amino)pyrrolidine-1-carbonyl)-2-methylphenyl)acrylamide]	0.1 to 1
C=CC(=O)Nc1ccc(C(=O)N2CC[C@@H](Nc3ccc(C4CC4)cn3)C2)cc1 [Example 85, (R)—N-(4-(3-((5-cyclopropylpyridin-2-yl)amino)pyrrolidine-1-carbonyl)phenyl)acrylamide]	0.1 to 1
C=C(CC)C(=O)Nc1ccc(C(=O)N2CC[C@@H](Nc3ncc(Cl)cn3)C2)cc1 [Example 83, (R)—N-(4-(3-((5-chloropyrimidin-2-yl)amino)pyrrolidine-1-carbonyl)phenyl)-2-methylenebutanamide]	0.1 to 1
C=CC(=O)Nc1ccc(C(=O)N2CC[C@@H](Nc3ncc(C)c(OC4CC4)n3)C2)cc1 [Example 22, (R)—N-(4-(3-((4-cyclopropoxy-5-methylpyrimidin-2-yl)amino)pyrrolidine-1-carbonyl)phenyl)acrylamide]	0.1 to 1
C=CC(=O)Nc1ccc(C(=O)N2CC[C@@H](Nc3ncc(Cl)cn3)C2)cc1OC [Example 31, (R)—N-(4-(3-((5-chloropyrimidin-2-yl)amino)pyrrolidine-1-carbonyl)-2-methoxyphenyl)acrylamide]	< 0.1
C=CC(=O)Nc1ccc(C(=O)N2CC[C@@H](Nc3ncc(Cl)cn3)C2)cc1-c1cnn(C)c1 [Example 12, (R)—N-(4-(3-((5-chloropyrimidin-2-yl)amino)pyrrolidine-1-carbonyl)-2-(1-methyl-1H-pyrazol-4-yl)phenyl)acrylamide]	0.1 to 1
CCC(=O)Nc1ccc(C(=O)N2CC[C@@H](Nc3ncc(Cl)c(OCC(F)(F)F)n3)C2)cc1 [Example 18, (R)—N-(4-(3-((5-chloro-4-(2,2,2-trifluoroethoxy)pyrimidin-2-yl)amino)pyrrolidine-1-carbonyl)phenyl)propionamide]	0.1 to 1
CCC(=O)Nc1ccc(C(=O)N2CCC[C@@H](Nc3nccc(N4CCOCC4)n3)C2)cc1 [Example 42, (R)—N-(4-(3-((4-morpholinopyrimidin-2-yl)amino)piperidine-1-carbonyl)phenyl)propionamide]	30 to 100
C=CC(=O)Nc1ccc(C(=O)N2CC[C@@H](Nc3ncc(C(F)(F)F)cn3)C2)cc1C [Example 79, (R)—N-(2-methyl-4-(3-((5-(trifluoromethyl)pyrimidin-2-yl)amino)pyrrolidine-1-carbonyl)phenyl)acrylamide]	< 0.1
C=CC(=O)Nc1ccc(C(=O)N2CCC[C@@H](Nc3nccc(OC)n3)C2)cc1 [Example 37, (R)—N-(4-(3-((4-methoxypyrimidin-2-yl)amino)piperidine-1-carbonyl)phenyl)acrylamide]	1 to 10
C=CC(=O)Nc1ccc(C(=O)N2CC[C@@H](Nc3nccc(OC4CCCC4)n3)C2)cc1 (stereo in doubt) [Example 45, N-{4-[3-(4-Cyclopentyloxy-pyrimidin-2-ylamino)-pyrrolidine-1-carbonyl]-phenyl}-acrylamide]	0.1 to 1

— US10894788B2, “Inhibitors of cyclin-dependent kinases” (Kinnate Biopharma Inc., priority 2018, dated 2021)
